Read-outs that look alike come from different tables or passages of the source.
Legend:
Format in all cases: in vivo
[1] = tested on: barnyardgrass (Echinochloa crus-galli); experiment: Test A preemergence; details: Echinochloa crus-galli, pre-emergence, 240 h; for pest or weed control at 125 g/ha: 125 g ai/ha; for pest or weed control at 500 g/ha: 500 g ai/ha
Outline: (§1)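 Preemergence soil spray on seeded pots or post-emergence spray on 1–2 leaf plants, in loam–sand blend. Greenhouse ~10 d. Visual rating 0–100 against untreated plants.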

[2] = tested on: Galium (catchweed bedstraw, Galium aparine); experiment: Test A postemergence; details: Galium, post-emergence, 240 h; for pest or weed control at 125 g/ha: 125 g ai/ha
Outline: as §1

[3] = tested on: Kochia (Kochia scoparia); experiment: Test A postemergence; details: Bassia scoparia, post-emergence, 240 h; for pest or weed control at 125 g/ha: 125 g ai/ha
Outline: as §1

[4] = tested on: barnyardgrass (Echinochloa crus-galli); experiment: Test A postemergence; details: Echinochloa crus-galli, post-emergence, 240 h, read-out: Plant response rating, Barnyardgrass; for pest or weed control at 125 g/ha: 125 g ai/ha, Postemergence, visual injury after approximately 10 d, 0 to 100 scale where 0 is no effect and 100 is complete control
Outline: as §1

[5] = tested on: blackgrass (Alopecurus myosuroides); experiment: Test A postemergence; details: Alopecurus myosuroides, post-emergence, 240 h, read-out: Plant response rating, Blackgrass; for pest or weed control at 125 g/ha: 125 g ai/ha, Postemergence, visual injury after approximately 10 d, 0 to 100 scale where 0 is no effect and 100 is complete control
Outline: as §1

[6] = tested on: corn (Zea mays); experiment: Test A postemergence; details: Zea mays, post-emergence, 240 h; for Corn plant response rating (crop injury, 0 = no effect, 100 = complete kill) at 125 g/ha: 125 g ai/ha, Postemergence, visual injury after approximately 10 d, 0 to 100 scale where 0 is no effect and 100 is complete control
Outline: as §1

[7] = tested on: giant foxtail (Setaria faberii); experiment: Test A postemergence; details: Setaria faberi, post-emergence, 240 h; for pest or weed control at 125 g/ha: 125 g ai/ha
Outline: as §1

[8] = tested on: pigweed (Amaranthus retroflexus); experiment: Test A postemergence; details: Amaranthus retroflexus, post-emergence, 240 h; for pest or weed control at 125 g/ha: 125 g ai/ha
Outline: as §1

[9] = tested on: ragweed (common ragweed, Ambrosia elatior); experiment: Test A postemergence; details: Ambrosia artemisiifolia, post-emergence, 240 h; for pest or weed control at 125 g/ha: 125 g ai/ha
Outline: as §1

[10] = tested on: ryegrass, Italian (Italian ryegrass, Lolium multiflorum); experiment: Test A postemergence; details: Lolium multiflorum, post-emergence, 240 h; for pest or weed control at 125 g/ha: 125 g ai/ha
Outline: as §1

[11] = tested on: wheat (Triticum aestivum); experiment: Test A postemergence; details: Triticum aestivum, post-emergence, 240 h; for plant injury at 125 g/ha: 125 g ai/ha
Outline: as §1

[12] = tested on: barnyardgrass (Echinochloa crus-galli); experiment: Test B flooded paddy test; details: Echinochloa crus-galli, Flood, 250 g ai/ha, read-out: Barnyardgrass plant response rating
Outline: (§2)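 Response scored visually against untreated controls, 0 = no effect and 100 = complete control, 13–15 d after treatment in the greenhouse. Compounds added to paddy water held 3 cm above soil surface. Treatment given at 2-leaf stage.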

[13] = tested on: ducksalad (Heteranthera limosa); experiment: Test B flooded paddy test; details: Heteranthera limosa, Flood, 250 g ai/ha, read-out: Ducksalad plant response rating
Outline: as §2

[14] = tested on: rice (Oryra sativa); experiment: Test B flooded paddy test; details: Oryza sativa, Flood, 250 g ai/ha, read-out: Rice plant response rating
Outline: as §2

[15] = tested on: sedge, umbrella (small-flower umbrella sedge, Cyperus difformis); experiment: Test B flooded paddy test; details: Cyperus difformis, Flood, 250 g ai/ha, read-out: Sedge, Umbrella plant response rating
Outline: as §2

[16] = scale of 0 to 100 where 0 is no effect and 100 is complete control
[17] = 500 g ai/ha, postemergence, visual injury, 0 to 100 scale (0 no effect, 100 complete control), approx. 10 d
[18] = 0 to 100 scale where 0 is no effect and 100 is complete control

For `CN1CC[C@H](c2cccc(Cl)c2)[C@@H](C(=O)Nc2cccc(F)c2F)C1=O` [Compound 921], the pest or weed control at 125 g/ha ([1]; preemergence, 0 to 100 scale where 0 is no effect and 100 is complete control, read-out: Barnyardgrass plant response rating) was 90%, the pest or weed control at 500 g/ha ([1]; Preemergence, visual injury vs untreated controls after approximately 10 d, read-out: Barnyardgrass plant response rating (0 to 100 scale where 0 is no effect and 100 is complete control)) was 90% and the pest or weed control at 125 g/ha ([2]; Postemergence, visual injury after approximately 10 d, 0 to 100 scale where 0 is no effect and 100 is complete control, read-out: Plant response rating, Galium) was 0%. For the same molecule, the pest or weed control at 125 g/ha ([3]; Postemergence, visual injury after approximately 10 d, 0 to 100 scale where 0 is no effect and 100 is complete control, read-out: Plant response rating, Kochia) was 0%, the pest or weed control at 125 g/ha [4] was 90% and the pest or weed control at 125 g/ha [5] was 20%. It also gave a Corn plant response rating (crop injury, 0 = no effect, 100 = complete kill) at 125 g/ha [6] of 20%, a pest or weed control at 125 g/ha ([7]; Postemergence, visual injury after approximately 10 d, 0 to 100 scale where 0 is no effect and 100 is complete control, read-out: Plant response rating, Foxtail, Giant) of 90% and a pest or weed control at 125 g/ha ([8]; Postemergence, visual injury after approximately 10 d, 0 to 100 scale where 0 is no effect and 100 is complete control, read-out: Plant response rating, Pigweed) of 0%. It also gave a pest or weed control at 125 g/ha ([9]; Postemergence, visual injury after approximately 10 d, 0 to 100 scale where 0 is no effect and 100 is complete control, read-out: Plant response rating, Ragweed) of 0%, a pest or weed control at 125 g/ha ([10]; Postemergence, visual injury after approximately 10 d, 0 to 100 scale where 0 is no effect and 100 is complete control, read-out: Plant response rating, Ryegrass, Italian) of 20% and a plant injury at 125 g/ha ([11]; Postemergence, visual injury after approximately 10 d, 0 to 100 scale where 0 is no effect and 100 is complete control, read-out: Plant response rating, Wheat) of 20%. The pest or weed control at 250 g/ha [12, 16] was 85%, the pest or weed control at 250 g/ha [13, 16] was 90% and the pest or weed control at 250 g/ha [14, 16] was 20%. For the same molecule, the pest or weed control at 250 g/ha [15, 16] was 0%.

`O=C(Nc1ccccc1F)[C@H]1C(=O)N(C2CC2)CC[C@@H]1c1ccccc1` [Compound 1031] showed a pest or weed control at 125 g/ha ([1]; Preemergence, visual injury rating after approximately 10 d, read-out: Barnyardgrass plant response rating (0 to 100 scale, 0 is no effect, 100 is complete control)) of 0%, a pest or weed control at 500 g/ha ([1]; preemergence, visual injury rating about 10 d after treatment, 0 to 100 scale (0 no effect, 100 complete control), read-out: Barnyardgrass plant response rating) of 0% and a pest or weed control at 125 g/ha ([2]; postemergence, visual injury on 0 to 100 scale (0 no effect, 100 complete control), approx. 10 d, read-out: Galium plant response rating) of 0%. The pest or weed control at 500 g/ha ([2]; 500 g ai/ha, postemergence, visual injury, 0 to 100 scale (0 no effect, 100 complete control), approx. 10 d, read-out: Plant response rating, Galium) was 0%, the pest or weed control at 125 g/ha ([3]; postemergence, visual injury on 0 to 100 scale (0 no effect, 100 complete control), approx. 10 d, read-out: Kochia plant response rating) was 0% and the pest or weed control at 500 g/ha ([3]; 500 g ai/ha, postemergence, visual injury, 0 to 100 scale (0 no effect, 100 complete control), approx. 10 d, read-out: Plant response rating, Kochia) was 0%. The pest or weed control at 125 g/ha [4] was 0%, the pest or weed control at 500 g/ha [4, 17] was 0% and the pest or weed control at 125 g/ha [5] was 0%. It also gave a pest or weed control at 500 g/ha [5, 17] of 0%, a Corn plant response rating (crop injury, 0 = no effect, 100 = complete kill) at 125 g/ha [6] of 0% and a Corn plant response rating (crop injury, 0 = no effect, 100 = complete kill) at 500 g/ha [6, 17] of 0%. The pest or weed control at 125 g/ha ([7]; postemergence, visual injury on 0 to 100 scale (0 no effect, 100 complete control), approx. 10 d, read-out: Foxtail, Giant plant response rating) was 0%, the pest or weed control at 500 g/ha ([7]; 500 g ai/ha, postemergence, visual injury, 0 to 100 scale (0 no effect, 100 complete control), approx. 10 d, read-out: Plant response rating, Foxtail, Giant) was 0% and the pest or weed control at 125 g/ha ([8]; postemergence, visual injury on 0 to 100 scale (0 no effect, 100 complete control), approx. 10 d, read-out: Pigweed plant response rating) was 0%. For the same molecule, the pest or weed control at 500 g/ha ([8]; 500 g ai/ha, postemergence, visual injury, 0 to 100 scale (0 no effect, 100 complete control), approx. 10 d, read-out: Plant response rating, Pigweed) was 0%, the pest or weed control at 125 g/ha ([9]; postemergence, visual injury on 0 to 100 scale (0 no effect, 100 complete control), approx. 10 d, read-out: Ragweed plant response rating) was 0% and the pest or weed control at 500 g/ha ([9]; 500 g ai/ha, postemergence, visual injury, 0 to 100 scale (0 no effect, 100 complete control), approx. 10 d, read-out: Plant response rating, Ragweed) was 0%. The pest or weed control at 125 g/ha ([10]; postemergence, visual injury on 0 to 100 scale (0 no effect, 100 complete control), approx. 10 d, read-out: Ryegrass, Italian plant response rating) was 0%, the pest or weed control at 500 g/ha ([10]; 500 g ai/ha, postemergence, visual injury, 0 to 100 scale (0 no effect, 100 complete control), approx. 10 d, read-out: Plant response rating, Ryegrass, Italian) was 0% and the plant injury at 125 g/ha ([11]; postemergence, visual injury on 0 to 100 scale (0 no effect, 100 complete control), approx. 10 d, read-out: Wheat plant response rating) was 0%. The plant injury at 500 g/ha ([11]; 500 g ai/ha, postemergence, visual injury, 0 to 100 scale (0 no effect, 100 complete control), approx. 10 d, read-out: Plant response rating, Wheat) was 0%, the pest or weed control at 250 g/ha [12, 18] was 0% and the pest or weed control at 250 g/ha [13, 18] was 0%. For the same molecule, the pest or weed control at 250 g/ha [14, 18] was 0% and the pest or weed control at 250 g/ha [15, 18] was 0%.
